Test system: tumour cell line 4T1 (breast cancer)
Experiment: In vitro MTT cytotoxicity assay, 4T1
Format: cell-based
Method: The cytotoxic activity of Doxo-Hyalusphere was tested on tumour cell lines 4T1 (breast cancer) and A549 (lung cancer), using the in vitro MTT assay.
For the purpose of the test, cell line 4T1 was cultured in RPMI medium (Gibco) and A549 in DMEM (Gibco). 10% FBS (foetal bovine serum, Gibco), 1% L-glutamine (Gibco) and 1% penicillin/streptomycin (Gibco) were added to both culture media at the temperature of 37° C. in the presence of 5% CO2.
The cells were plated in 24-well microplates (Nunc) (50000 cells per well in 500 μl of medium). After 12 hours, 100 μl of culture medium containing the various conditions studied was added to each well: • 1) Nanoparticles with PEG (PEG-NP); • 2) Nanoparticles with rHyal_Sk (Hyal-NP); • 3) Doxorubicin in solution (Free DOX); • 4) Doxorubicin bonded to nanoparticles (DOX-NP) • 5) Doxo-HyaluSpheres (DOX-Hyal-NP),
The nanoparticle concentrations were established at 40000 per cell, and the plates were incubated for 24 and 96 hours. […]
Metabolic activity was evaluated after 30 minutes by reading the optical density (OD) with an ELISA Reader (Bio-Rad) spectrophotometer at the wavelength of 570 nm. […] The fraction of viable cells was determined on the basis of the ratio between the mean optical density of the treated samples and that of the untreated control sample.

For COc1cccc2c1C(=O)c1c(O)c3c(c(O)c1C2=O)C[C@@](O)(C(=O)CO)C[C@@H]3O[C@H]1C[C@H](N)[C@H](O)[C@H](C)O1 [Free-DOX, Doxorubicin], the “tumour cell survival compared with the doxorubicin nanosystems” value (free doxorubicin 0.75 μg/mL) was “Quantitatively identical results” and the cell death (free drug equivalent to 3 nM (1.6 ng/mL), 24 and 96 hours) was “did not lead to cell death”.

Reference: patent US12115229B2, “Nanosystems for controlled transport of active molecules for diagnostic, prognostic and therapeutic purposes” (FIDIA FARMACEUTICI S.P.A., priority 2015, dated 2024)
